Source: US20240270809A1, “ORAL GLP RECEPTOR AGONISTS” (priority 2020, published 2024)
Like-named read-outs stand apart in the source and are kept apart here. Positions of bridges follow the written chain, without caps; N, C: chain ends. Non-standard residues stand in square brackets, D forms with d. Residues, ends and D or L forms follow the SMILES beside them. *: point of attachment. Malonyl(2,2-Me2,histaminyl) = CC(C)(C(=O)NCCc1cnc[nH]1)C(=O)*; Ala(1H-tetrazol-5-yl) = N[C@@H](Cc1nnn[nH]1)C(=O)O; αMePhe(2-F) = C[C@](N)(Cc1ccccc1F)C(=O)O; αMeL = CC(C)C[C@](C)(N)C(=O)O; Nle = CCCC[C@H](N)C(=O)O; Aib = CC(C)(N)C(=O)O

What was measured:
Type in all cases: cell-based
[1] = molecular target: T1, mouse GLP2 receptor (Mus musculus, UniProt Q5IXF8); assay: cAMP accumulation assay, functional agonism of mouse GLP2 receptor
T1 construct: expressed in transfected cells; host or cells: HEK cells, transient transfection with GeneJuice
T1 sequence (Q5IXF8 1-512): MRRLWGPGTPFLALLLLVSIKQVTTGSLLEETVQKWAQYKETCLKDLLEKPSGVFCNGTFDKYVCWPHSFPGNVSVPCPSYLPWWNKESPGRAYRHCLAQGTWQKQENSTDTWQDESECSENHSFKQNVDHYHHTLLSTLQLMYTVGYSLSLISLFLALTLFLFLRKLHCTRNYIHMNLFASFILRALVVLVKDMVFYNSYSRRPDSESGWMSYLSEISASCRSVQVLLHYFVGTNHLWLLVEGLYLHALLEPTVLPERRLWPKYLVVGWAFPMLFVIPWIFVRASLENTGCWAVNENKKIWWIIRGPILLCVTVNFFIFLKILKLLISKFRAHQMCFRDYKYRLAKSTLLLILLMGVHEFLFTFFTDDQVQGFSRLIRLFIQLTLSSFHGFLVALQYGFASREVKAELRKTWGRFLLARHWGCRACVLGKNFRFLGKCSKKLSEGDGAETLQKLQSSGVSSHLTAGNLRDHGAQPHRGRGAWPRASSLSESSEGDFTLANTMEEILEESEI
Protocol: CAMP production upon agonist stimulation of mouse GLP2 or GLP1 receptors was assessed utilizing HiRange cAMP kit (Cisbio). In brief, HEK cells were transiently transfected for 24 hours with cDNA using GeneJuice Transfection reagent (EMD Millipore) and frozen at −80° C. for later use in the assay. On the day, various concentrations of compounds were dispensed using ECHO-555 (LabCyte) to a total volume of 100 nl into a low volume 384-well Proxi plate (Perkin Elmer) followed by addition of 10 μl of cell suspension delivering 8000 cells per well. Cells were prepared in the assay buffer (HBSS (Lonza) supplemented with 0.5 mM IBMX (Tocris)). After 45 min incubation at 37° C., the reaction was stopped by addition of the HTRF detection reagents in the lysis buffer provided in the kit. Following 1-hour incubation at RT, plates were read on Pherastar FS (BMG Labtech, Inc.) using standard HTRF settings. Dotmatics Studies software was used for calculation of pEC50 values by fitting data to a four-parameter concentration response curve.

[2] = molecular target: T2, human GLP1 receptor (Homo sapiens, UniProt P43220); assay: cAMP accumulation assay, functional agonism of human GLP1 receptor; conditions: HEK cells infected with human GLP1 receptor BacMam virus, HTRF cAMP; for Emax: HEK293, read-out: Human GLP-1R agonist cAMP Emax; for EC50: read-out: Human GLP-1R agonist cAMP pEC50 (converted)
T2 construct: expressed in transfected cells; host or cells: HEK cells, BacMam virus transduction
How it was run: (§1)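 HEK cells transduced 24 h with human GLP1 or GLP2 receptor BacMam virus, then frozen until use. Agonist stimulation for 45 min at 37 °C in HBSS with 0.5 mM IBMX; cAMP measured by HTRF after lysis.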

[3] = molecular target: T3, human GLP2 receptor (Homo sapiens, UniProt O95838); assay: cAMP accumulation assay, functional agonism of human GLP2 receptor; conditions: HEK cells infected with human GLP2 receptor BacMam virus, HTRF cAMP; for Emax: HEK293, read-out: Human GLP-2R agonist cAMP Emax; for EC50: read-out: Human GLP-2R agonist cAMP pEC50 (converted)
T3 construct: expressed in transfected cells; host or cells: HEK cells, BacMam virus transduction
T3 sequence (O95838 1-553): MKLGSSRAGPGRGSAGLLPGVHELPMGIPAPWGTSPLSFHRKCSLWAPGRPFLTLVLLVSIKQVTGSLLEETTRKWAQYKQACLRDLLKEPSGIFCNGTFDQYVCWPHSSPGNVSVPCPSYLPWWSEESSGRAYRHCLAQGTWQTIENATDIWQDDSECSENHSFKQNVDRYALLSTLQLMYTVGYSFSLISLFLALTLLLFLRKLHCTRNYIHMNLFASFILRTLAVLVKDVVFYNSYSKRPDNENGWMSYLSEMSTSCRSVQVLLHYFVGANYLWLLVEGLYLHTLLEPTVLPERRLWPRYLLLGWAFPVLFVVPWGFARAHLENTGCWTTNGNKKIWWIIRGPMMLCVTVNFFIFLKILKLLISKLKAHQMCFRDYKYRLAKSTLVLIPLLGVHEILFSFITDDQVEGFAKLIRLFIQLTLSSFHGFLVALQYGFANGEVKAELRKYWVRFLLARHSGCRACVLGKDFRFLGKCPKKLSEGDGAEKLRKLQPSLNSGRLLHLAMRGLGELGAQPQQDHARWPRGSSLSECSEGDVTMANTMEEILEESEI
How it was run: as §1

[4] = HEK293, HEK cells transiently transfected with mouse GLP2 receptor, HTRF cAMP, read-out: Mouse GLP-2R agonist cAMP Emax
[5] = HEK cells transiently transfected with mouse GLP2 receptor, HTRF cAMP, read-out: Mouse GLP-2R agonist cAMP pEC50 (converted)

T2 sequence (P43220 24-463): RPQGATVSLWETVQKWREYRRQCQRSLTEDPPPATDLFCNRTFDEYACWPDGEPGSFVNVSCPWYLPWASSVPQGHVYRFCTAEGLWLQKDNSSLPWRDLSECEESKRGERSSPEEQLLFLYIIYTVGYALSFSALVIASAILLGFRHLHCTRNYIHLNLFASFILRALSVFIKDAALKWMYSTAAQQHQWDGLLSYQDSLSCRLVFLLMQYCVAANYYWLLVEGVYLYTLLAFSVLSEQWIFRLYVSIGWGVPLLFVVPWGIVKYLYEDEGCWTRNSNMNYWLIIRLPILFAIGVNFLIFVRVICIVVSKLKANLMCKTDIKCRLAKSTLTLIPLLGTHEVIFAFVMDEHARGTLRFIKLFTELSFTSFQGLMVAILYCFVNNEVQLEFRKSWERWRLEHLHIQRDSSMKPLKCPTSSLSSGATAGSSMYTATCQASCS

| Structure (SMILES) | Emax [1, 4] | EC50 [1, 5] | Emax [2] | EC50 [2] | Emax [3] | EC50 [3] | EC50 [1] | Emax ([1]; HEK293, read-out: Mouse GLP-2R agonist cAMP Emax) |
| --- | --- | --- | --- | --- | --- | --- | --- | --- |
| CCCC[C@H](NC(=O)[C@H](CCC(=O)O)NC(=O)[C@H](CC(=O)O)NC(=O)[C@H](CO)NC(=O)[C@](C)(Cc1ccccc1F)NC(=O)[C@H](CO)NC(=O)CNC(=O)[C@H](Cc1nn[nH]n1)NC(=O)C(C)(C)C(=O)NCCc1c[nH]cn1)C(=O)N[C@H](Cc1ccccc1)C(=O)N[C@H]1CCC(=O)NCCCC[C@@H](C(=O)N[C@H]2CCC(=O)NCCCC[C@@H](C(=O)N[C@@H](CC(=O)O)C(=O)N[C@@H](Cc3ccccc3)C(=O)N[C@H](C(=O)N[C@H]3CCC(=O)NCCCC[C@@H](C(=O)N[C@H]4CCCCNC(=O)CC[C@@H](C(N)=O)NC(=O)[C@H]([C@@H](C)O)NC(=O)[C@H]([C@@H](C)CC)NC(=O)[C@H](CCCCN)NC4=O)NC(=O)[C@H]([C@@H](C)CC)NC(=O)[C@H](CC(C)C)NC(=O)[C@H](Cc4c[nH]c5ccccc45)NC3=O)[C@@H](C)CC)NC(=O)[C@H](C)NC(=O)[C@H](C)NC2=O)NC(=O)[C@H](CC(=O)O)NC(=O)[C@H](CC(C)C)NC(=O)[C@H]([C@@H](C)CC)NC1=O [Example 52] | – | – | 98.8% | 0.00251 nM | 102% | 0.01 nM | 0.2 nM | 103% |
| CCCC[C@H](NC(=O)[C@H](CCC(=O)O)NC(=O)[C@H](CC(=O)O)NC(=O)[C@H](CO)NC(=O)[C@](C)(Cc1ccccc1F)NC(=O)[C@H](CO)NC(=O)CNC(=O)[C@H](Cc1nn[nH]n1)NC(=O)C(C)(C)C(=O)NCCc1c[nH]cn1)C(=O)N[C@H](Cc1ccccc1)C(=O)N[C@H]1CCC(=O)NCCCC[C@@H](C(=O)N[C@H]2CCCCNC(=O)C[C@@H](C(=O)N[C@@H](Cc3ccccc3)C(=O)N[C@H](C(=O)N[C@H]3CCC(=O)NCCCC[C@@H](C(=O)N[C@H]4CCCCNC(=O)CC[C@@H](C(N)=O)NC(=O)[C@H]([C@@H](C)O)NC(=O)[C@H]([C@@H](C)CC)NC(=O)[C@H](CCCCN)NC4=O)NC(=O)[C@H]([C@@H](C)CC)NC(=O)[C@H](CC(C)C)NC(=O)[C@H](Cc4c[nH]c5ccccc45)NC3=O)[C@@H](C)CC)NC(=O)[C@H](CCCCN)NC(=O)[C@H](C)NC(=O)[C@H](C)NC2=O)NC(=O)[C@H](CC(=O)O)NC(=O)[C@H](CC(C)C)NC(=O)[C@H]([C@@H](C)CC)NC1=O [Example 53] ({Malonyl(2,2-Me2,histaminyl)}-[Ala(1H-tetrazol-5-yl)]GS[αMePhe(2-F)]SDE[Nle][dF]EILDKKAAKDFIEWLIKKKITE-NH2; lactam 10-14, 15-19, 22-26, 27-31; C-terminus assumed) | 103% | 0.631 nM | 99.5% | 0.00501 nM | 102% | 0.02 nM | – | – |
| CCCC[C@@H]1NC(=O)[C@H](CCC(=O)O)NC(=O)[C@@H](NC(=O)[C@H](CO)NC(=O)[C@](C)(Cc2ccccc2F)NC(=O)[C@H](CO)NC(=O)[C@@H](C)NC(=O)[C@H](Cc2nn[nH]n2)NC(=O)C(C)(C)C(=O)NCCc2c[nH]cn2)CCCCNC(=O)C[C@@H](C(=O)N[C@@](C)(CC(C)C)C(=O)N[C@@H](CC(C)C)C(=O)N[C@@H](CC(=O)O)C(=O)N[C@H]2CCC(=O)NCCCC[C@@H](C(=O)N[C@@H](CC(=O)O)C(=O)N[C@@H](Cc3ccccc3)C(=O)N[C@H](C(=O)N[C@H]3CCCCNC(=O)C[C@@H](C(=O)N[C@H]4CCC(=O)NCCCC[C@@H](C(N)=O)NC(=O)[C@H]([C@@H](C)O)NC(=O)[C@H]([C@@H](C)CC)NC(=O)[C@H](CCCCN)NC4=O)NC(=O)[C@H]([C@@H](C)CC)NC(=O)[C@H](CC(C)C)NC(=O)[C@H](Cc4c[nH]c5ccccc45)NC3=O)[C@@H](C)CC)NC(=O)[C@H](C)NC(=O)[C@H](C)NC(=O)[C@H](CCCCN)NC2=O)NC(=O)[C@@H](Cc2ccccc2)NC1=O [Example 56] ({Malonyl(2,2-Me2,histaminyl)}-[Ala(1H-tetrazol-5-yl)][dA]S[αMePhe(2-F)]SKE[Nle][dF]D[αMeL]LDEKAAKDFIKWLIDEKITK-NH2; lactam 6-10, 14-18, 22-26, 27-31 (inferred); C-terminus assumed) | 98.6% | 0.631 nM | 97.3% | 0.0631 nM | 103% | 0.0126 nM | – | – |

Further lines, with some results ahead:

| Emax [1, 4] | EC50 [1, 5] | Emax [2] | EC50 [2] | Emax [3] | EC50 [3] | Structure (SMILES) | EC50 [1] | Emax ([1]; HEK293, read-out: Mouse GLP-2R agonist cAMP Emax) |
| --- | --- | --- | --- | --- | --- | --- | --- | --- |
| 81% | 7.94 nM | 98.3% | 0.1 nM | 102% | 0.0251 nM | CCCC[C@@H]1NC(=O)[C@H](CCC(=O)O)NC(=O)[C@@H](NC(=O)[C@H](CO)NC(=O)[C@](C)(Cc2ccccc2F)NC(=O)[C@H](CO)NC(=O)[C@@H](C)NC(=O)[C@H](CC(=O)O)NC(=O)C(C)(C)C(=O)NCCc2c[nH]cn2)CCCCNC(=O)C[C@@H](C(=O)N[C@@](C)(CC(C)C)C(=O)N[C@@H](CC(C)C)C(=O)N[C@@H](CC(=O)O)C(=O)N[C@H]2CCC(=O)NCCCC[C@@H](C(=O)N[C@@H](CC(=O)O)C(=O)N[C@@H](Cc3ccccc3)C(=O)N[C@H](C(=O)N[C@H]3CCC(=O)NCCCC[C@@H](C(=O)N[C@H]4CCC(=O)NCCCC[C@@H](C(N)=O)NC(=O)[C@H]([C@@H](C)O)NC(=O)[C@H]([C@@H](C)CC)NC(=O)[C@H](CCCCN)NC4=O)NC(=O)[C@H]([C@@H](C)CC)NC(=O)[C@H](CC(C)C)NC(=O)[C@H](Cc4c[nH]c5ccccc45)NC3=O)[C@@H](C)CC)NC(=O)[C@H](C)NC(=O)[C@H](C)NC(=O)[C@H](CCCCN)NC2=O)NC(=O)[C@@H](Cc2ccccc2)NC1=O [Example 50] ({Malonyl(2,2-Me2,histaminyl)}-D[dA]S[αMePhe(2-F)]SKE[Nle][dF]D[αMeL]LDEKAAKDFIEWLIKEKITK-NH2; lactam 6-10, 14-18, 22-26, 27-31 (inferred); C-terminus assumed) | – | – |
| 99.7% | 2 nM | 98% | 0.0251 nM | 104% | 0.0398 nM | CCCC[C@H](NC(=O)[C@H](CCC(=O)O)NC(=O)[C@@H]1CC(=O)NCCCC[C@H](NC(=O)[C@H](CC(=O)O)NC(=O)C(C)(C)NC(=O)[C@@H](N)Cc2c[nH]cn2)C(=O)N[C@@H](CO)C(=O)N[C@@](C)(Cc2ccccc2F)C(=O)N[C@@H](CO)C(=O)N1)C(=O)N[C@H](Cc1ccccc1)C(=O)N[C@H](C(=O)N[C@@](C)(CC(C)C)C(=O)N[C@@H](CC(C)C)C(=O)N[C@@H](CC(=O)O)C(=O)N[C@H]1CCC(=O)NCCCC[C@@H](C(=O)N[C@@H](CC(=O)O)C(=O)N[C@@H](Cc2ccccc2)C(=O)N[C@H](C(=O)N[C@H]2CCC(=O)NCCCC[C@@H](C(=O)N[C@H]3CCC(=O)NCCCC[C@@H](C(N)=O)NC(=O)[C@H]([C@@H](C)O)NC(=O)[C@H]([C@@H](C)CC)NC(=O)[C@H](CCCCN)NC3=O)NC(=O)[C@H]([C@@H](C)CC)NC(=O)[C@H](CC(C)C)NC(=O)[C@H](Cc3c[nH]c4ccccc34)NC2=O)[C@@H](C)CC)NC(=O)[C@H](C)NC(=O)[C@H](C)NC(=O)[C@H](CCCCN)NC1=O)[C@@H](C)O [Example 64] (H-H[Aib]DKS[αMePhe(2-F)]SDE[Nle][dF]T[αMeL]LDEKAAKDFIEWLIKEKITK-NH2; lactam 4-8, 16-20, 24-28, 29-33; N-terminus and C-terminus assumed) | – | – |
